Measured values as given in patent US20110172147A1, “NEUROPEPTIDE-2 RECEPTOR (Y-2R) AGONISTS” (priority 2009, published 2011).
*1 amine or outer side, *2 acyl side, *3 side chain or, on linkers, in order; H or OH if unused. Where a SMILES comes first, the peptide text is derived from it. [ ]: non-standard residue; d: D form. The star is where a group is joined. MeO(CH2CH2O)23CH2CH2CO = COCCOCCOCCOCCOCCOCCOCCOCCOCCOCCOCCOCCOCCOCCOCCOCCOCCOCCOCCOCCOCCOCCOCCOCCC(=O)*; X1 = O=C(Cn1cnc2ccc(N3CCN([*:1])CC3)cc2c1=O)[*:2]; Arachidoyl = CCCCCCCCCCCCCCCCCCCC(=O)*

Experiments:
Format in all cases: cell-based
hNPY2R [1] = biological target: T1, hNPY2R (Homo sapiens, UniProt P49146); assay: cAMP Agonist Assay, HEK293/hNPY2R; parameters: expressed in transfected cells; host or cells: HEK293/hNPY2R (G418 selection)
T1 sequence (P49146 1-381): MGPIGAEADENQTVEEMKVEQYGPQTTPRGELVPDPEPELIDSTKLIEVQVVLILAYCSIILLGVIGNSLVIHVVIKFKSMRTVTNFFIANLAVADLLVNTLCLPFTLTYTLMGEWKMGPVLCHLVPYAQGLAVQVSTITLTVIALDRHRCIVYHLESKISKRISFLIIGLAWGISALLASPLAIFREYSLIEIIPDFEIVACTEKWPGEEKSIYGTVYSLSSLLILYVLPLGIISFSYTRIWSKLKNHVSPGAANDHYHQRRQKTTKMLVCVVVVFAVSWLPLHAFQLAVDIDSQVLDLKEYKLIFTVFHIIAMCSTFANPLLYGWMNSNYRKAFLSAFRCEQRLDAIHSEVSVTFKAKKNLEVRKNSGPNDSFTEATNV
In short: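 Intracellular cAMP quantified by luminescent competitive ELISA after a 30 min room-temperature treatment of overnight-plated HEK293/hNPY2R cells with compound in medium containing 5 μM forskolin, 0.5 mM IBMX and 1.1% DMSO; four replicates per concentration.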

Y1R = biological target: T2, Y1R (Homo sapiens, UniProt P25929); assay: CaFlux Assay (FLIPR), Y1R
T2 sequence (P25929 1-384): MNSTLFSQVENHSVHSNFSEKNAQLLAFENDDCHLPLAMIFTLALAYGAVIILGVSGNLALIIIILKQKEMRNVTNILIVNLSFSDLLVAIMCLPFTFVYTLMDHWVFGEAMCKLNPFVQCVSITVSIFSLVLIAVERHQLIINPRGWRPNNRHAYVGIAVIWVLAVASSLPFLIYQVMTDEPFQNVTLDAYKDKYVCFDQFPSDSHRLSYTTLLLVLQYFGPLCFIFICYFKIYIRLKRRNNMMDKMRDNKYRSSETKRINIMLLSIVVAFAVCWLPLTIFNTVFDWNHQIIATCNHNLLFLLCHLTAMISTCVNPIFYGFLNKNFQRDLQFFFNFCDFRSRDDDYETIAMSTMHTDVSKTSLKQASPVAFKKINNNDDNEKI

hNPY2R [2] = biological target: T1, hNPY2R; assay: CaFlux Assay (FLIPR), Y2R; parameters: expressed in transfected cells; host or cells: HEK-293 stably transfected with G protein chimera Gαqi9
In short: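 HEK-293 cells stably expressing Gαqi9 and the human receptor, dye-loaded 1 h at 37° C, then compound added on FLIPR. Fluorescence read every 1.5 s for 100 s; peak increase over pre-stimulation baseline, expressed as % of positive-control maximal response.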

Y4R = Y4R (Homo sapiens, UniProt P50391); assay: CaFlux Assay (FLIPR), Y4R
Y5R = biological target: T3, Y5R (Homo sapiens, UniProt Q15761); assay: CaFlux Assay (FLIPR), Y5R
T3 sequence (Q15761 1-445): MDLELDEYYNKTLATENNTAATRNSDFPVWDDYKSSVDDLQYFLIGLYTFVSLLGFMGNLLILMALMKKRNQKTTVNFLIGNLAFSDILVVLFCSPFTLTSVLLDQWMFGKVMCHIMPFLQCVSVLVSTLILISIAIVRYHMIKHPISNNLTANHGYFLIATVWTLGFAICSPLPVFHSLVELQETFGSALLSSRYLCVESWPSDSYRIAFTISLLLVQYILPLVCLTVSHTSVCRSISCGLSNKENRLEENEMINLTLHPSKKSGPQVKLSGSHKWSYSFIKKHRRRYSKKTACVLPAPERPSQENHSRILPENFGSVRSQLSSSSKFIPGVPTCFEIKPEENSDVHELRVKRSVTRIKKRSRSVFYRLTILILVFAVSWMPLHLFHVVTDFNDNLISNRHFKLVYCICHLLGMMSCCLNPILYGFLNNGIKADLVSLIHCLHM

Y4R, sequence (P50391 whole entry): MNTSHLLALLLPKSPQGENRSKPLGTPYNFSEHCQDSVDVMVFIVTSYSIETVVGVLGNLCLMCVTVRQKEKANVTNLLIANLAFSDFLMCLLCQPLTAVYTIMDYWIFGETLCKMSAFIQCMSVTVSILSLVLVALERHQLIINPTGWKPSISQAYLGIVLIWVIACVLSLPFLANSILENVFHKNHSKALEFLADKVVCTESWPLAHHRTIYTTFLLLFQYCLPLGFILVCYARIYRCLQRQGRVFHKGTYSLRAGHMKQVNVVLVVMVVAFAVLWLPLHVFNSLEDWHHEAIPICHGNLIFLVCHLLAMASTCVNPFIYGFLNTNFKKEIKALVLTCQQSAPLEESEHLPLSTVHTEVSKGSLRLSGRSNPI

Q: What does the source list for `CCCCCCCCCCCCCCCCCCCC(=O)N[C@@H](CCC(=O)O)C(=O)N[C@@H](CCC(=O)O)C(=O)N[C@H](C(=O)N[C@@H](CCCCNC(=O)CCOCCOCCOCCOCCOCCOCCOCCOCCOCCOCCOCCOCCOCCOCCOCCOCCOCCOCCOCCOCCOCCOCCOCCOC)C(=O)N1CCN(c2ccc3ncn(CC(=O)N[C@@H](CCCNC(=N)N)C(=O)N[C@@H](Cc4c[nH]cn4)C(=O)N[C@@H](Cc4ccc(O)cc4)C(=O)N[C@@H](Cc4c[nH]cn4)C(=O)N[C@@H](CC(N)=O)C(=O)N[C@@H](Cc4c[nH]c5ccccc45)C(=O)N[C@H](C(=O)N[C@H](C(=O)N[C@@H](CCCNC(=N)N)C(=O)N[C@@H](CCC(N)=O)C(=O)N[C@@H](CCCNC(=N)N)C(=O)N[C@@H](Cc4ccc(O)cc4)C(N)=O)[C@@H](C)O)C(C)C)c(=O)c3c2)CC1)[C@@H](C)CC` [Example 57] (Arachidoyl-EEIK(MeO(CH2CH2O)23CH2CH2CO)[X1]RHYHNWVTRQRY-NH2)?
A: EC50 (hNPY2R [1]): 0.011 nM; EC50 (Y1R): > 6000 nM; EC50 (hNPY2R [2]): 0.016 nM; EC50 (Y4R): > 6000 nM; EC50 (Y5R): 5.67 nM

Q: For `CCCCCCCCCCCCCCCCCCCC(=O)N[C@@H](CCC(=O)N[C@@H](CCC(=O)N[C@H](C(=O)N[C@@H](CCCCNC(=O)CCOCCOCCOCCOCCOCCOCCOCCOCCOCCOCCOCCOC)C(=O)N1CCN(c2ccc3ncn(CC(=O)N[C@@H](CCCNC(=N)N)C(=O)N[C@@H](Cc4c[nH]cn4)C(=O)N[C@@H](Cc4ccc(O)cc4)C(=O)N[C@@H](CC(C)C)C(=O)N[C@@H](CC(N)=O)C(=O)N[C@@H](Cc4c[nH]c5ccccc45)C(=O)N[C@H](C(=O)N[C@H](C(=O)N[C@@H](CCCNC(=N)N)C(=O)N[C@@H](CCC(N)=O)C(=O)N(C)[C@@H](CCCNC(=N)N)C(=O)N[C@@H](Cc4ccc(O)cc4)C(N)=O)[C@@H](C)O)C(C)C)c(=O)c3c2)CC1)[C@@H](C)CC)C(=O)O)C(=O)O` [Example 58], which EC50 (hNPY2R [1]) is on record?
A: The EC50 was 0.21 nM.

Q: What about the EC50 (Y1R) of the same molecule?
A: Its EC50 is > 9000 nM.

Q: And the EC50 (hNPY2R [2])?
A: The EC50 was 0.114 nM.

Q: And the EC50 (Y4R)?
A: Its EC50 is > 9000 nM.

Q: And the EC50 (Y5R)?
A: The EC50 was 4180 nM.

Q: `CCCCCCCCCCCCCCCCCCCC(=O)N[C@@H](CCC(=O)N[C@@H](CCC(=O)N[C@H](C(=O)N[C@@H](CCCCNC(=O)CCOCCOCCOCCOCCOCCOCCOCCOCCOCCOCCOCCOCCOCCOCCOCCOC)C(=O)N1CCN(c2ccc3ncn(CC(=O)N[C@@H](CCCNC(=N)N)C(=O)N[C@@H](Cc4c[nH]cn4)C(=O)N[C@@H](Cc4ccc(O)cc4)C(=O)N[C@@H](CC(C)C)C(=O)N[C@@H](CC(N)=O)C(=O)N[C@@H](Cc4c[nH]c5ccccc45)C(=O)N[C@H](C(=O)N[C@H](C(=O)N[C@@H](CCCNC(=N)N)C(=O)N[C@@H](CCC(N)=O)C(=O)N(C)[C@@H](CCCNC(=N)N)C(=O)N[C@@H](Cc4ccc(O)cc4)C(N)=O)[C@@H](C)O)C(C)C)c(=O)c3c2)CC1)[C@@H](C)CC)C(=O)O)C(=O)O` [Example 59] was tested. Which EC50 (hNPY2R [1]) did it give?
A: Its EC50 is 0.29 nM.

Q: What about the EC50 (Y1R) of the same molecule?
A: The EC50 was > 9000 nM.

Q: And the EC50 (hNPY2R [2])?
A: Its EC50 is 0.285 nM.

Q: What about the EC50 (Y4R) of the same molecule?
A: Its EC50 is > 9000 nM.

Q: And the EC50 (Y5R)?
A: Its EC50 is 3880 nM.

Q: For `CCCCCCCCCCCCCCCCCCCC(=O)N[C@@H](CCC(=O)N[C@@H](CCC(=O)N[C@H](C(=O)N[C@@H](CCCCNC(=O)CCOCCOCCOCCOCCOCCOCCOCCOCCOCCOCCOCCOCCOCCOCCOCCOCCOCCOCCOCCOCCOCCOCCOCCOC)C(=O)N1CCN(c2ccc3ncn(CC(=O)N[C@@H](CCCNC(=N)N)C(=O)N[C@@H](Cc4c[nH]cn4)C(=O)N[C@@H](Cc4ccc(O)cc4)C(=O)N[C@@H](CC(C)C)C(=O)N[C@@H](CC(N)=O)C(=O)N[C@@H](Cc4c[nH]c5ccccc45)C(=O)N[C@H](C(=O)N[C@H](C(=O)N[C@@H](CCCNC(=N)N)C(=O)N[C@@H](CCC(N)=O)C(=O)N(C)[C@@H](CCCNC(=N)N)C(=O)N[C@@H](Cc4ccc(O)cc4)C(N)=O)[C@@H](C)O)C(C)C)c(=O)c3c2)CC1)[C@@H](C)CC)C(=O)O)C(=O)O` [Example 60], which EC50 (hNPY2R [1]) is on record?
A: Its EC50 is 0.29 nM.

Q: What about the EC50 (Y1R) of the same molecule?
A: The EC50 was > 9000 nM.

Q: And the EC50 (hNPY2R [2])?
A: Its EC50 is 0.18 nM.

Q: And the EC50 (Y4R)?
A: The EC50 was > 9000 nM.

Q: And the EC50 (Y5R)?
A: Its EC50 is 2600 nM.
